# Assay results from US9115165B2, “Tetracyclic anthraquinone antibiotic derivatives with high activity, process for preparing the same and use thereof” (Tianjin Hemay Bio-Tech Co., Ltd., priority 2008, dated 2015).
# Read-outs that look alike come from different tables or passages of the source.
# Assays:
# Lovo cells = assay: Cytotoxicity assay (MTS/MTT), growth inhibition of Lovo cells; format: cell-based, human; settings: concentration of 1 μM
# Protocol: LOVO: human colon cancer cell strains;
# (§1) Cells were seeded into RPMI 1640 cell culture solution containing 10% fetal bovine serum (100 ku/L of penicillin and 100 ku/L of streptomycin were supplemented). The culture dish was placed in a cell incubator containing 5% CO2 at 37° C. The culture solution was changed once every 2-3 days. Cells were digested with 0.25% trypsin liquid, passaged and collected.
# (§2) Cells during the logarithmic growth phase were formulated into a cell suspension having a desired concentration with RPMI 1640 cell culture solution containing 10% fetal bovine serum. The cell suspension was added onto 96 well cell culture plate at 3000-5000 per well (100 μl). After incubating for 24 hours, 100 μl of the test substances with different concentration was added per well. There were four parallel wells for each concentration in this plate. After incubating for 72 to 120 hours, the supernatant was discarded. To each well was added 100 μl of new formulated 0.5 mg/ml MTT serum-free culture solution. After incubating for 4 hours at 37° C., the supernatant was discarded. Formazane was dissolved with 200 μl DMSO. After slightly oscillating for 15 min, absorbance values (OD value) at the detective wavelength of 570 nm and the reference wavelength of 450 nm were determined with enzyme labeling instrument.
# (§3) Data was represented by x±s. The inhibition rate=(OD value of the control group−OD value of the administration group)/OD value of the control group×100%. The maximum inhibition rate Imax and the half effective concentration (IC50) represent the anticancer effects. Figures were drawn with MicroCal Origin software. The inhibition curve of the test substance to the growth of tumor cells was fitted by Four Parameters Logistic Program of the software. The half effective concentration (IC50: μg/ml) for inhibiting the proliferation of tumor cells was calculated.
# (§4) The exposure concentrations of the test substance were 0.001 μg/ml, 0.003 μg/ml, 0.009 μg/ml, 0.027 μg/ml, 0.082 μg/ml, 0.247 μg/ml, 0.741 μg/ml, 2.222 μg/ml, 6.667 μg/ml and 20 μg/ml. The exposure concentrations of doxorubicin (positive drug) were 1.25 μg/ml, 5 μg/ml, 20 μg/ml. In a 96-well plate, 3000-5000 cells were inoculated in each well and there were four parallel wells for each concentration. Table 1 lists the growth inhibition rate of the compounds against Lovo cells at concentration of 1 μM. Table 3 lists the inhibition rate of the compounds against the hyperplasia of MCF-7 human breast cancer cells at various concentrations.
# A549 cell = assay: Cytotoxicity assay (MTS/MTT), A549 cells; format: cell-based, human; settings: read-out: Half-Inhibitory Concentration of Cells Growth (EC50), A549 cell
# Protocol: A549: human lung cancer cell strains;
# as §1, §2, §3, §4
# HCT-8 cell = assay: Cytotoxicity assay (MTS/MTT), HCT-8 cells; format: cell-based, human; settings: read-out: Half-Inhibitory Concentration of Cells Growth (EC50), HCT-8 cell
# Protocol: HCT-8: human colon cancer cell strains;
# as §1, §2, §3, §4
# HEPG-2 = assay: Cytotoxicity assay (MTS/MTT), HEPG-2 cells; format: cell-based, human; settings: read-out: Half-Inhibitory Concentration of Cells Growth (EC50), HEPG-2
# Protocol: HEPG-2: human liver cancer cell strains;
# as §1, §2, §3, §4
# Kunming white mice [1] = settings: reference value given in the conclusion; cited from earlier work
# [2] = system: MCF-7 human breast cancer cells; assay: Cytotoxicity assay (MTS/MTT), MCF-7 cells; format: cell-based; settings: for EC50: read-out: Half-Inhibitory Concentration of Cells Growth (EC50), MCF-7 cell
# Protocol: MCF-7: human breast cancer cell strains;
# as §1, §2, §3, §4
# [3] = folds of doxorubicin; cited from earlier work
# transplanted tumor = transplanted tumor in mice; cited from earlier work
# Kunming white mice [4] = assay: In vivo MTD test in mice; settings: for Abnormality on the body surface / Change of body weight / Mortality rate: tail vein injection
# Protocol: Experiment purpose: preliminary investigation on in vivo toxicity of the compound in Example 1 in mice
# Experiment animal: Kunming white mice 20±2 g, purchased from the animal housing in Institute of Radiation Medicine, Chinese Academy of Medical Sciences. Animal license No.: SCXK(JIN)2005-0001.
# Preparation of drug solution: After the drug was vortexed to dissolve with 0.5% (V/V) of DMSO, 5% (V/V) of RH40 (ethoxylated hydrogenated castor oil) was added. After mixing with vortex, the volume was determined with normal saline.
# (1) Single administration: Nine healthy Kunming male white mice, of which the body weights are 20±2 g, were divided into three groups: 2 mice belong to the control group; 6 mice belong to 20 mg/kg group; 1 mouse belongs to 30 mg/kg group. 20 mg/kg and 30 mg/kg of the compound in Example 1 were administrated once via tail vein injection to the mice in the administration group. The same volume of a solvent was administrated as control to the mice in the control group. After administration, conditions such as action, reflex, locomotor activity and the like of the mice were observed within one hour. Subsequently, the body weights of the mice were recorded every day. Having observed for 14 days after drug withdrawal, the mice were anatomized to observe whether their main organs have an obvious abnormality.
# (2) Multiple administrations: Twelve healthy Kunming white mice including six male mice and six female mice, of which the body weights are 20±2 g, were divided into two groups: […]. 10 mg/kg of the test drug was administrated once every three days via tail vein injection to the mice in the administration group. The same volume of a solvent was administrated as the control to the mice in the control group. The mice in each group were administrated five times. After each administration, conditions such as action, reflex, locomotor activity and the like of the mice were observed within one hour. The body weights of mice were recorded every day. Having been fed normally for one week after drug withdrawal, the mice were anatomized to observe whether their main organs have an obvious abnormality.
# [5] = multiple administrations, 10 mg/kg once every three days, five times
# [6] = single administration, 20 mg/kg and 30 mg/kg
# [7] = MCF-7, compound concentration 0.001 μg/ml
# [8] = MCF-7, compound concentration 0.003 μg/ml
# [9] = MCF-7, compound concentration 0.009 μg/ml
# [10] = MCF-7, compound concentration 0.027 μg/ml
# [11] = MCF-7, compound concentration 0.082 μg/ml
# [12] = MCF-7, compound concentration 0.247 μg/ml
# [13] = MCF-7, compound concentration 0.741 μg/ml
# [14] = MCF-7, compound concentration 2.222 μg/ml
# [15] = MCF-7, compound concentration 6.667 μg/ml
# [16] = MCF-7, compound concentration 20 μg/ml
molecule,measurement,setting,value
3′-pyrrolyl-5-iminodaunomycin [Example 2],Growth Inhibition Rate (%),Lovo cells,74.0%
"COc1cccc2c1C(=O)c1c(O)c3c(c(O)c1C2=O)C[C@@](O)(C(=O)CO)C[C@@H]3O[C@H]1C[C@H](N)[C@H](O)[C@H](C)O1 [Doxorubicin, doxorubicin, reference compound]",EC50,"A549 cell; Homo sapiens, A549",660 nM
same,inhibition at 1 µM,"Lovo cells; Homo sapiens, read-out: Growth Inhibition Rate (%)",50.4%
same,EC50,"HCT-8 cell; Homo sapiens, HCT-8",900 nM
same,EC50,"HEPG-2; Homo sapiens, HepG2",2000 nM
same,Maximal tolerance dose (MTD),Kunming white mice [1],8 to 12 mg/kg
same,EC50,"[2]; Homo sapiens, MCF7",1200 nM
"COc1cccc2c1C(=O)c1c(O)c3c(c(O)c1C2=O)C[C@@](O)(C(=O)CO)C[C@@H]3O[C@H]1C[C@H](n2cccc2)[C@H](O)[C@H](C)O1 [Example 5, 3′-pyrrolyldoxorubicin]",Growth Inhibition Rate (%),Lovo cells,67.25%
3′-pyrrolyl-idarubicin [Example 3],Growth Inhibition Rate (%),Lovo cells,88.9%
3′-pyrrolyl-4′-(pyran-2-yl)doxorubicin [Example 6],Growth Inhibition Rate (%),Lovo cells,90.94%
"COc1cccc2c1C(=O)c1c(O)c3c(c(O)c1C2=O)C[C@@](O)(C(=O)CO)C[C@@H]3O[C@H]1C[C@H](N2C=CCC2)[C@H](O)[C@H](C)O1 [AN-201, 2-pyrrolinyl-doxorubicin]",Activity in the cellular level relative to doxorubicin,[3],300-1000 folds
same,Anticancer activity at the maximal tolerance dose,transplanted tumor,the anticancer activity was not observed at the maximal tolerance dose
"COc1cccc2c1C(=O)c1c(O)c3c(c(O)c1C2=O)CC(O)(C(=O)COC(=O)CCC(=O)O)CC3OC1CC(n2cccc2)C(O)C(C)O1 (stereo not shown) [Example 13, 3′-pyrrolyldoxorubicin-14-oxo-hydrogen succinate]",EC50,A549 cell; A549 cell,2360 nM
same,Growth Inhibition Rate (%),Lovo cells,76.05%
same,EC50,HCT-8 cell; HCT-8 cell,1870 nM
same,EC50,HEPG-2; HEPG-2,150 nM
same,EC50,[2]; MCF-7 cell,930 nM
"COc1cccc2c1C(=O)c1c(O)c3c(c(O)c1C2=O)CC(O)(C(=O)COC(=O)C(C)N)CC3OC1CC(n2cccc2)C(O)C(C)O1.Cl (stereo not shown) [Example 38, 3′-pyrrolyldoxorubicin-14-oxo-alaninate hydrochloride]",EC50,A549 cell; A549 cell,230 nM
same,Growth Inhibition Rate (%),Lovo cells,78.44%
same,EC50,HCT-8 cell; HCT-8 cell,590 nM
same,EC50,HEPG-2; HEPG-2,1060 nM
same,EC50,[2]; MCF-7 cell,870 nM
3′-pyrrolyl-esorubicin [Example 4],Growth Inhibition Rate (%),Lovo cells,40.71%
"COc1cccc2c1C(=O)c1c(O)c3c(c(O)c1C2=O)CC(O)(C(=O)CO)CC3OC1CC(N2C(=O)CCC2=O)C(O)C(C)O1 (stereo not shown) [Example 7, 3′-succinimidodoxorubicin]",Growth Inhibition Rate (%),Lovo cells,83.31%
"COc1cccc2c1C(=O)c1c(O)c3c(c(O)c1C2=O)C[C@@](O)(C(=O)CO)C[C@@H]3O[C@H]1C[C@H](n2cccc2)[C@H](O)[C@H](C)O1 [Example 1, 3′-pyrrolyldoxorubicin]",EC50,A549 cell; A549 cell,61 nM
same,Growth Inhibition Rate (%),Lovo cells; 1 µM,80.62%
same,EC50,HCT-8 cell; HCT-8 cell,490 nM
same,Maximal tolerance dose (MTD) relative to doxorubicin,"Kunming white mice [4]; mice, compared with doxorubicin MTD 8-12 mg/kg",at least more than five folds higher than that of doxorubicin
same,Abnormality on the body surface,Kunming white mice [4]; [5],no obvious abnormality on the body surface was observed
same,Change of body weight,Kunming white mice [4]; [5],The body weight of each mouse increased slowly after administration
same,Mortality rate,Kunming white mice [4]; [5],Death was not found
same,Abnormality on the body surface,Kunming white mice [4]; [6],no obvious abnormality on the body surface was observed
same,Change of body weight,Kunming white mice [4]; [6],The body weight of each mouse increased after administration
same,Mortality rate,"Kunming white mice [4]; single administration, 20 mg/kg and 30 mg/kg, observed 14 days",Death was not found
same,EC50,HEPG-2; HEPG-2,810 nM
same,A570 nm-OD Values,[2]; [7],1.629 ± 0.257
same,Inhibition Rate (%),[2]; [7],4.27%
same,A570 nm-OD Values,[2]; [8],1.744 ± 0.176
same,Inhibition Rate (%),[2]; [8],−2.49%
same,A570 nm-OD Values,[2]; [9],1.443 ± 0.079
same,Inhibition Rate (%),[2]; [9],15.17%
same,A570 nm-OD Values,[2]; [10],1.238 ± 0.072
same,Inhibition Rate (%),[2]; [10],27.22%
same,A570 nm-OD Values,[2]; [11],0.883 ± 0.041
same,Inhibition Rate (%),[2]; [11],48.09%
same,A570 nm-OD Values,[2]; [12],0.703 ± 0.058
same,Inhibition Rate (%),[2]; [12],58.68%
same,A570 nm-OD Values,[2]; [13],0.461 ± 0.026
same,Inhibition Rate (%),[2]; [13],72.89%
same,A570 nm-OD Values,[2]; [14],0.302 ± 0.030
same,Inhibition Rate (%),[2]; [14],82.26%
same,A570 nm-OD Values,[2]; [15],0.320 ± 0.030
same,Inhibition Rate (%),[2]; [15],81.18%
same,A570 nm-OD Values,[2]; [16],0.289 ± 0.019
same,Inhibition Rate (%),[2]; [16],83.03%
same,EC50,[2]; MCF-7 cell,210 nM
same,Imax (maximum inhibition rate),[2]; MCF-7 human breast cancer cells,Imax = 83.03%
same,IC50,"[2]; MCF-7 human breast cancer cells, fitted inhibition curve",0.06023 ± 0.01528 µg/mL
